Patent US20220187282A1, “CARDIOMYOCYTE PROLIFERATION” (The Council of the Queensland Institute of Medical Research, priority 2019, published 2022)
Where two headings read alike, the source gives them in different places.

Columns and labels:
Type in all cases: biochemical
kinases [1] = molecular target: kinases (Homo sapiens, UniProt O00141); conditions: SGK (SGK1) FRET-Z-Lyte SP; Test Conc(μM):ATP Conc(μM) 1:25
kinases [2] = molecular target: kinases (Homo sapiens, UniProt O76039); conditions: CDKL5 FRET-Z-Lyte SP; Test Conc(μM):ATP Conc(μM) 1:500
kinases [3] = molecular target: kinases (Homo sapiens, UniProt P17252); conditions: PRKCA (PKC alpha) Z-Lyte SP; Test Conc(μM):ATP Conc(μM) 1:25
kinases [4] = molecular target: kinases (Homo sapiens, UniProt P19784); conditions: CSNK2A2 (CK2alpha2) Z-Lyte SP; Test Conc(μM):ATP Conc(μM) 1:50
kinases [5] = molecular target: kinases (Homo sapiens, UniProt P29317); conditions: EPHA2 FRET-Z-Lyte SP; Test Conc(μM):ATP Conc(μM) 1:75
kinases [6] = molecular target: kinases (Homo sapiens, UniProt P29597); conditions: TYK2 FRET-Z-Lyte SP; Test Conc(μM):ATP Conc(μM) 1:25
kinases [7] = molecular target: kinases (Homo sapiens, UniProt P41240); conditions: CSK FRET-Z-Lyte SP; Test Conc(μM):ATP Conc(μM) 1:10
kinases [8] = molecular target: kinases (Homo sapiens, UniProt P42345); conditions: FRAP1 (mTOR) *Mn* Z-Lyte SP; Test Conc(μM):ATP Conc(μM) 1:10
kinases [9] = molecular target: kinases (Homo sapiens, UniProt P43250); conditions: GRK6 FRET-Z-Lyte SP; Test Conc(μM):ATP Conc(μM) 1:10
kinases [10] = molecular target: kinases (Homo sapiens, UniProt P43405); conditions: SYK FRET-Z-Lyte SP; Test Conc(μM):ATP Conc(μM) 1:25
kinases [11] = molecular target: kinases (Homo sapiens, UniProt P52333); conditions: JAK3 FRET-Z-Lyte SP; Test Conc(μM):ATP Conc(μM) 1:10
kinases [12] = molecular target: T1, kinases (Homo sapiens, UniProt P52564)
T1 sequence (P52564 1-334): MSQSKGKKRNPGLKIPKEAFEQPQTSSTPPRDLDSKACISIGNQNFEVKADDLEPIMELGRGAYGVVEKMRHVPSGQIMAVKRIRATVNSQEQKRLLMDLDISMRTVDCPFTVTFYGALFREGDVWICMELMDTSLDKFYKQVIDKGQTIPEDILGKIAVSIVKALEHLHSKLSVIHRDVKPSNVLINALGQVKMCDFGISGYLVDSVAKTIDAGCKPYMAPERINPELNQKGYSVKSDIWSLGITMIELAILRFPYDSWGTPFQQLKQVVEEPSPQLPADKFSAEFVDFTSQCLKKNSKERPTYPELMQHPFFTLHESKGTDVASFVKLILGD

kinases [13] = molecular target: kinases (Homo sapiens, UniProt P53355); conditions: DAPK1 FRET-Adapta SP; Test Conc(μM):ATP Conc(μM) 1:5
kinases [14] = molecular target: kinases (Homo sapiens, UniProt P54762); conditions: EPHB1 FRET-Z-Lyte SP; Test Conc(μM):ATP Conc(μM) 1:50
kinases [15] = molecular target: kinases (Homo sapiens, UniProt Q02750)
kinases [16] = molecular target: kinases (Homo sapiens, UniProt Q13177); conditions: PAK2 (PAK65) FRET-Z-Lyte SP; Test Conc(μM):ATP Conc(μM) 1:75
kinases [17] = molecular target: kinases (Homo sapiens, UniProt Q5TCX8); conditions: MLK4 FRET-Lantha SP; Test Conc(μM) 1
kinases [18] = molecular target: kinases (Homo sapiens, UniProt Q8IVH8); conditions: MAP4K3 (GLK) FRET-Lantha SP; Test Conc(μM) 1
kinases [19] = molecular target: kinases (Homo sapiens, UniProt Q8N568); conditions: DCAMKL2 (DCK2) FRET-Z-Lyte SP; Test Conc(μM):ATP Conc(μM) 1:150
kinases [20] = molecular target: kinases (Homo sapiens, UniProt Q8N5S9); conditions: CAMKK1 (Alpha) FRET-Lantha SP; Test Conc(μM) 1
kinases [21] = molecular target: kinases (Homo sapiens, UniProt Q96NX5); conditions: CAMK1G FRET-Z-Lyte SP
kinases [22] = molecular target: kinases (Homo sapiens, UniProt Q96PF2); conditions: STK22B (TSSK2) FRET-Z-Lyte SP; Test Conc(μM):ATP Conc(μM) 1:5
kinases [23] = molecular target: kinases (Homo sapiens, UniProt Q99640); conditions: PKMYT1 FRET-Lantha SP; Test Conc(μM) 1
kinases [24] = molecular target: kinases (Homo sapiens, UniProt Q9UM73); conditions: ALK FRET-Z-Lyte SP; Test Conc(μM):ATP Conc(μM) 1:25
kinases [25] = molecular target: kinases (Homo sapiens, UniProt Q9UPZ9); conditions: ICK FRET-Lantha SP; Test Conc(μM) 1
[26] = MAP2K6 (MKK6) FRET-Lantha SP, Test Conc(μM) 1
[27] = MAP2K6 (MKK6)Cascade Z-Lyte SP, Test Conc(μM):ATP Conc(μM) 1:100
[28] = MAP2K1 (MEK1) FRET-Lantha SP, Test Conc(μM) 1
[29] = MAP2K1 (MEK1)Cascade Z-Lyte SP, Test Conc(μM):ATP Conc(μM) 1:100

Chain of kinases (Homo sapiens, UniProt Q02750) (Q02750 whole entry): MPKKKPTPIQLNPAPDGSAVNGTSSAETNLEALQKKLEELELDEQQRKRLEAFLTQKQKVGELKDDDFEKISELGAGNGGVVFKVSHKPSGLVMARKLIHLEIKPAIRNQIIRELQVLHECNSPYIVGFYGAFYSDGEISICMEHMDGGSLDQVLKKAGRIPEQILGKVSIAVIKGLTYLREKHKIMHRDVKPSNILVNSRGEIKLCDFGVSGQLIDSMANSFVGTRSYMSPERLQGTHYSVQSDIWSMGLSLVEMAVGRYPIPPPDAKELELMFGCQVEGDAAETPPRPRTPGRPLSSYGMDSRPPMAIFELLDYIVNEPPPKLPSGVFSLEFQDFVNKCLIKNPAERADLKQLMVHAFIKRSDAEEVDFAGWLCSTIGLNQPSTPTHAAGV
Chain of kinases (Homo sapiens, UniProt P54762) (P54762 18-984): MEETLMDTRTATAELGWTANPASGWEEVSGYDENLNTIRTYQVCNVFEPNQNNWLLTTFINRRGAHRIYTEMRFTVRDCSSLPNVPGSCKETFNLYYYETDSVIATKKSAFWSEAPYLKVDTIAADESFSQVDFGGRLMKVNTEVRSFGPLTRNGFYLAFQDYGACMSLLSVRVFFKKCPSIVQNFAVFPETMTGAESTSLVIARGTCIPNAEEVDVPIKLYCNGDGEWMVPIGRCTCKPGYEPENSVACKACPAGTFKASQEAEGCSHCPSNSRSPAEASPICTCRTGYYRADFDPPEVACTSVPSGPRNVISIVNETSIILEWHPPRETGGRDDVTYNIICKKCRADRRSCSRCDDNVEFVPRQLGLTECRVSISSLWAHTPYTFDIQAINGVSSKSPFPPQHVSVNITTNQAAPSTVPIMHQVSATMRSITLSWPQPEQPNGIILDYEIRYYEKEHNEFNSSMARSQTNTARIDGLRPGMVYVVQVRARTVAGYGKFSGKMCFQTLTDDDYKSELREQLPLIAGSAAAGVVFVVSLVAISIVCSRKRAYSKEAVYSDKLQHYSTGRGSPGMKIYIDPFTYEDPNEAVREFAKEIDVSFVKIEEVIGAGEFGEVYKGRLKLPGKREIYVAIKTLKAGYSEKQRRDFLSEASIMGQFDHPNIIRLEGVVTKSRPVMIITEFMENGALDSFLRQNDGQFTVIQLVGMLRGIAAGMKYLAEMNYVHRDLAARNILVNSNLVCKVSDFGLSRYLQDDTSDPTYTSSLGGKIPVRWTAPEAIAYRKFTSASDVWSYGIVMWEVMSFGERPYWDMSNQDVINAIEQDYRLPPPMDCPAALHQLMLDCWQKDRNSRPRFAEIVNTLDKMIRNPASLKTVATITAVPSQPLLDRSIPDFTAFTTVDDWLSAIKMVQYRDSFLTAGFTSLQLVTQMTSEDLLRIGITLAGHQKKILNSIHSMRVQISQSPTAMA
Chain of kinases (Homo sapiens, UniProt P19784) (P19784 whole entry): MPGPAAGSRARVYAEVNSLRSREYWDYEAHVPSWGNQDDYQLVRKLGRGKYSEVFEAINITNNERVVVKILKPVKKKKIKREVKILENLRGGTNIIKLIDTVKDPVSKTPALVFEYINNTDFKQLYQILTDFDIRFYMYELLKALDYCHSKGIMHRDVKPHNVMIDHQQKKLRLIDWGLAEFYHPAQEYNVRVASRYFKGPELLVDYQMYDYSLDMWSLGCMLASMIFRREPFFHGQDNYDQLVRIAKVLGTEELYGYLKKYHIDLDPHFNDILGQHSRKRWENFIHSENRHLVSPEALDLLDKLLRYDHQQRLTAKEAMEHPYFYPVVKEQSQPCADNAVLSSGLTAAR
Chain of kinases (Homo sapiens, UniProt P29317) (P29317 24-976): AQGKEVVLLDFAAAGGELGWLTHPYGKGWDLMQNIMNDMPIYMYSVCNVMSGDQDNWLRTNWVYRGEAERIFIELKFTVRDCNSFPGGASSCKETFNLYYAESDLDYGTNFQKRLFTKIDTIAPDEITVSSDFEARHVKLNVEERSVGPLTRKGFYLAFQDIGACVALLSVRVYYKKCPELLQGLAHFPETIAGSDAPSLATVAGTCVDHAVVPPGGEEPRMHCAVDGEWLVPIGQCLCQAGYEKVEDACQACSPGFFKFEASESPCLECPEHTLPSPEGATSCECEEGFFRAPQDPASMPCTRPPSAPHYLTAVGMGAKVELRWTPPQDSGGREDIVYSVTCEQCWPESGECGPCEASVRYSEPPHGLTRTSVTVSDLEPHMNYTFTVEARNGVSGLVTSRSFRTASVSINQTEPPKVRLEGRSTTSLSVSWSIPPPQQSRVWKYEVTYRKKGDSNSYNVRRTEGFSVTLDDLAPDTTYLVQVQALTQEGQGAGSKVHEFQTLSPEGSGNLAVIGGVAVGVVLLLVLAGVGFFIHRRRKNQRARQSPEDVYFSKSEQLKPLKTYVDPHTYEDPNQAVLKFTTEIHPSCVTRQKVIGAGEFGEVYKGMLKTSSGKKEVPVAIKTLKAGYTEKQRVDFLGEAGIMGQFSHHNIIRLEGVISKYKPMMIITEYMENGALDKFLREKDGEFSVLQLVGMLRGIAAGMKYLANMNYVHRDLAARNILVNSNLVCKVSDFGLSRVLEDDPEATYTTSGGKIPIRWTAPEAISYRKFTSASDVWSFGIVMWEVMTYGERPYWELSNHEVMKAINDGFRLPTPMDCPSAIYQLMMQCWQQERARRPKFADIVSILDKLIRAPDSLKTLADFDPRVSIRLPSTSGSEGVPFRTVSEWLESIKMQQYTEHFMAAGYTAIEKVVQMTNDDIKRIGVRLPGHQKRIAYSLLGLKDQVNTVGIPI
Chain of kinases (Homo sapiens, UniProt P43250) (P43250 whole entry): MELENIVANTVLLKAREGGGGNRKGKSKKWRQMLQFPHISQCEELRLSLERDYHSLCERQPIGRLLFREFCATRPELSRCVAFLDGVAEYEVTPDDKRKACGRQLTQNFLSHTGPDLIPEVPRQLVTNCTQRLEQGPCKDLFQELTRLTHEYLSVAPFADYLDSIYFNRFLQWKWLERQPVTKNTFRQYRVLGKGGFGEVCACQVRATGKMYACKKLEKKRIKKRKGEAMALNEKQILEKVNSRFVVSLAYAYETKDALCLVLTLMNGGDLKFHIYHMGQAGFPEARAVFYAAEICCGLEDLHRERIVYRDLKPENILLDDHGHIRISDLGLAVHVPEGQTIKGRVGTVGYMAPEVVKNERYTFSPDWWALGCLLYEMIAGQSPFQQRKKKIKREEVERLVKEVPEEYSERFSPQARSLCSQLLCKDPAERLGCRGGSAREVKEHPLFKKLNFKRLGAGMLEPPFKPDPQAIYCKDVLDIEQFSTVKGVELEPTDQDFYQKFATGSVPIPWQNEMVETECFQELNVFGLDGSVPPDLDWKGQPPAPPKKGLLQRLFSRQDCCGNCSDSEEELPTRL
Chain of kinases (Homo sapiens, UniProt Q99640) (Q99640 whole entry): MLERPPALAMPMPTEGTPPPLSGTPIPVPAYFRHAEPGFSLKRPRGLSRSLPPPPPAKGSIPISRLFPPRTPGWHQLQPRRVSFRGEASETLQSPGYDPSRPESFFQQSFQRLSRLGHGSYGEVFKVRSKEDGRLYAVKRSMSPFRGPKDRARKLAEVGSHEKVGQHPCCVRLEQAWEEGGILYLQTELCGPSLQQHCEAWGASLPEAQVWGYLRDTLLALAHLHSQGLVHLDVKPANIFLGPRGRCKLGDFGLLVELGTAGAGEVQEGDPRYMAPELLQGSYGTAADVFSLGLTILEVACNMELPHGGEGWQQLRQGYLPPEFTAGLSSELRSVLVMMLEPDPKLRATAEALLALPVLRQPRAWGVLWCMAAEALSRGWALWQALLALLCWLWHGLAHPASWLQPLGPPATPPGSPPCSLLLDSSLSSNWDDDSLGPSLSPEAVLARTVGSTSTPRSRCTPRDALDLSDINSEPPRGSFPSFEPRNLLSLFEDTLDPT
Chain of kinases (Homo sapiens, UniProt Q96NX5) (Q96NX5 whole entry): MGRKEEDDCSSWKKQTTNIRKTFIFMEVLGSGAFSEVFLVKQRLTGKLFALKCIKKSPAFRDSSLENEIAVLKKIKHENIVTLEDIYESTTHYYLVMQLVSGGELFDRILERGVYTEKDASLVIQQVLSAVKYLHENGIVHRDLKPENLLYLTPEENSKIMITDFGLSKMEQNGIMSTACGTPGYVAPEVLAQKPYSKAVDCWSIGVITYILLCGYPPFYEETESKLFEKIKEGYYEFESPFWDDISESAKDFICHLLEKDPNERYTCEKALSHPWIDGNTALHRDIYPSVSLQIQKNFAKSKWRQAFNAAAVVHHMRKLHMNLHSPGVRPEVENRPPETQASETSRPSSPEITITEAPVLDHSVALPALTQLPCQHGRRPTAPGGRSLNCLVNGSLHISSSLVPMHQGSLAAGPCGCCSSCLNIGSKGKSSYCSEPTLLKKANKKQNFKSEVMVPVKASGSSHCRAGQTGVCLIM

Structure (SMILES) | Mean Inhib (%) (kinases [1]) | Mean Inhib (%) (kinases [2]) | Mean Inhib (%) (kinases [3]) | Mean Inhib (%) (kinases [4]) | Mean Inhib (%) (kinases [5]) | Mean Inhib (%) (kinases [6]) | Mean Inhib (%) (kinases [7]) | Mean Inhib (%) (kinases [8]) | Mean Inhib (%) (kinases [9]) | Mean Inhib (%) (kinases [10]) | Mean Inhib (%) (kinases [11]) | Mean Inhib (%) (kinases [12]; [26]) | Mean Inhib (%) (kinases [12]; [27]) | Mean Inhib (%) (kinases [13]) | Mean Inhib (%) (kinases [14]) | Mean Inhib (%) (kinases [15]; [28]) | Mean Inhib (%) (kinases [15]; [29]) | Mean Inhib (%) (kinases [16]) | Mean Inhib (%) (kinases [17]) | Mean Inhib (%) (kinases [18]) | also measured
Cc1ccc(NC(=O)c2ccnc(N3CCOCC3)c2)cc1Nc1ccnc(N2CC(C)OC(C)C2)n1 (stereo not drawn) [compound 3] | −7.0 | 13.9 | 23.3 | 9.9 | 10.8 | 6.0 | 10.1 | 0.7 | 0.8 | −3.9 | 7.2 | −4.9 | 21.3 | 1.4 | 3.5 | −3.2 | 20.0 | 14.5 | −1.5 | 7.7 | Mean Inhib (%) (kinases [19]): 5.5%; Mean Inhib (%) (kinases [20]): −7.3%; Mean Inhib (%) (kinases [21]; Test Conc(μM):ATP Conc(μM) 1:300): 5.8%; Mean Inhib (%) (kinases [22]): 1.2%; Mean Inhib (%) (kinases [23]): 9.3%; Mean Inhib (%) (kinases [24]): 11.9%; Mean Inhib (%) (kinases [25]): 0.3%
Cc1cc(Oc2ccnc(Nc3ccc(S(N)(=O)=O)cc3)c2)c(-c2ccccn2)nc1C [compound 65] | −1.4 | 9.8 | −2.0 | 9.5 | 30.7 | 8.4 | 6.4 | −8.8 | 2.1 | 2.5 | −7.8 | 2.3 | −5.7 | −2.6 | 47.1 | −0.5 | 17.3 | 12.5 | 1.9 | 14.0 | Mean Inhib (%) (kinases [19]): 4.9%; Mean Inhib (%) (kinases [20]): −6.4%; Mean Inhib (%) (kinases [21]; Test Conc(μM):ATP Conc(μM) 0.25): −3.7%; Mean Inhib (%) (kinases [22]): −0.9%; Mean Inhib (%) (kinases [23]): −14.5%; Mean Inhib (%) (kinases [24]): 4.2%; Mean Inhib (%) (kinases [25]): 6.0%
